Literature values in patent publication US20130266625A1 (YISSUM RESEARCH DEVELOPMENT COMPANY OF THE HEBREW …, priority 2011, published 2013).

Key:
[1] = test system: procollagen alpha1 (I), MMP-1 and TIMP-1 expression in skin; conditions: 5% in ethanol:olive oil (1:2), 12 times over 4 weeks
[2] = test system: cultured dermal fibroblasts
[3] = 50 mg/day over one year

## C[C@]12CC[C@H](O)CC1=CC[C@@H]1[C@@H]2CC[C@]2(C)C(=O)CC[C@@H]12 [DHEA, dehydroepiandrosterone]
[1]
  basal expression of MMP-1 mRNA and protein: significantly decreased
[1]; aged and young skin
  expression of procollagen alpha1 (I) mRNA and protein: significantly increase
[1]; aged skin
  expression of TIMP-1 protein: increased
[2]
  matrix metalloproteinase (MMP)-1 synthesis: decreasing
  procollagen synthesis: increase procollagen synthesis
  tissue inhibitor of matrix metalloprotease (TIMP-1) production: increasing
[3]
  harmful consequences: no harmful consequences were observed
[3]; individuals aged 60 years and over
  skin status (hydration, epidermal thickness, sebum production, skin pigmentation): improvement of the skin status
